From the kinase profiling compilation of Christmann-Franck et al. (2016)

Columns and labels:
Assay in all cases: radiometric filter-binding kinase assay
[1] = molecular target: CSNK1D (human) (UniProt P48730)
[2] = molecular target: CHEK2 (human) (UniProt O96017)
[3] = molecular target: DYRK1A (human) (UniProt Q13627)
[4] = molecular target: IRAK4 (human) (UniProt Q9NWZ3)
[5] = molecular target: JAK2 JH1 JH2 (human) (UniProt O60674)
[6] = molecular target: MKNK1 (human) (UniProt Q9BUB5)
[7] = molecular target: DYRK3 (human) (UniProt O43781)
[8] = molecular target: IKBKB (human) (UniProt O14920)
[9] = molecular target: STK11 CAB39 STRADA (human) (UniProt Q9Y376+Q7RTN6+Q15831)
[10] = molecular target: IKBKE (human) (UniProt Q14164)
[11] = test system: RPS6KB1 (human), P23443 [T412E]
[12] = molecular target: TBK1 (human) (UniProt Q9UHD2)
[13] = molecular target: PIM1 (human) (UniProt P11309)
[14] = molecular target: MAPKAPK2 (human) (UniProt P49137); settings: compound 1.0 µM
[15] = molecular target: MARK2 (human) (UniProt Q7KZI7)
[16] = molecular target: MAP2K1 (human) (UniProt Q02750)
[17] = molecular target: MARK3 (human) (UniProt P27448)
[18] = molecular target: MAPK3 (human) (UniProt P27361)
[19] = molecular target: NUAK1 (human) (UniProt O60285)
[20] = molecular target: MAPK9 (human) (UniProt P45984)
[21] = molecular target: NEK2 (human) (UniProt P51955)
[22] = molecular target: CaMK1 (human) (UniProt Q14012)
[23] = molecular target: MKNK2 (human) (UniProt Q9HBH9)
[24] = molecular target: MAPK14 (human) (UniProt Q16539)
[25] = molecular target: STK3 (human) (UniProt Q13188)
[26] = molecular target: NEK6 (human) (UniProt Q9HC98)
[27] = molecular target: PAK4 (human) (UniProt O96013)
[28] = molecular target: MARK1 (human) (UniProt Q9P0L2)
[29] = molecular target: MAPK8 (human) (UniProt P45983)
[30] = test system: AKT1 (human), P31749 [S473D]
[31] = molecular target: MAP3K11 (human) (UniProt Q16584)
[32] = molecular target: TTK (human) (UniProt P33981)
[33] = molecular target: EPHB2 (human) (UniProt P29323)
[34] = molecular target: RPS6KA1 KD1 KD2 (human) (UniProt Q15418)
[35] = molecular target: NTRK1 (human) (UniProt P04629)

Chain of RPS6KB1 (human), P23443 [T412E] (P23443 whole entry T412E, looked up): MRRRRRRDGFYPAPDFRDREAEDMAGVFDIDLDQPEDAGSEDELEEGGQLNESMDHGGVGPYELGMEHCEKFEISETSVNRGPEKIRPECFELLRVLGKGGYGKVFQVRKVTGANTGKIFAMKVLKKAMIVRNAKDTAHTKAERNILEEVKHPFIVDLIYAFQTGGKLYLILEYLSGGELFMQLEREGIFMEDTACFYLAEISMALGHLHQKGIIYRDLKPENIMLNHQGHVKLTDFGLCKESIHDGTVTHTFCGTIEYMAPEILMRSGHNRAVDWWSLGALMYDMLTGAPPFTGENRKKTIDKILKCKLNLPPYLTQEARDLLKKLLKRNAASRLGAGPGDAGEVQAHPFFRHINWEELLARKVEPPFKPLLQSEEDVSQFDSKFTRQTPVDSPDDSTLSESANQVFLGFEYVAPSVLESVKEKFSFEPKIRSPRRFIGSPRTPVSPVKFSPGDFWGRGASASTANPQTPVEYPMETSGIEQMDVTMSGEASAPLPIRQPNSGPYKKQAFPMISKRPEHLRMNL
Chain of PIM1 (human) (P11309 whole entry, looked up): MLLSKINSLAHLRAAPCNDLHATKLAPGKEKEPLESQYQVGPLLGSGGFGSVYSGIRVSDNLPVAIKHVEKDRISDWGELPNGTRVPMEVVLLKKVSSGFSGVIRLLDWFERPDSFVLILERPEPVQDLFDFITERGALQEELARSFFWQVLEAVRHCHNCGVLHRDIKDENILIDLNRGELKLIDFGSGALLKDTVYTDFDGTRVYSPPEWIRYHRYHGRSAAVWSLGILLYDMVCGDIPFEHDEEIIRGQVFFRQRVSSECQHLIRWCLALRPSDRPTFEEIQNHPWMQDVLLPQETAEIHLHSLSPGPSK
Chain of JAK2 JH1 JH2 (human) (O60674 whole entry, looked up): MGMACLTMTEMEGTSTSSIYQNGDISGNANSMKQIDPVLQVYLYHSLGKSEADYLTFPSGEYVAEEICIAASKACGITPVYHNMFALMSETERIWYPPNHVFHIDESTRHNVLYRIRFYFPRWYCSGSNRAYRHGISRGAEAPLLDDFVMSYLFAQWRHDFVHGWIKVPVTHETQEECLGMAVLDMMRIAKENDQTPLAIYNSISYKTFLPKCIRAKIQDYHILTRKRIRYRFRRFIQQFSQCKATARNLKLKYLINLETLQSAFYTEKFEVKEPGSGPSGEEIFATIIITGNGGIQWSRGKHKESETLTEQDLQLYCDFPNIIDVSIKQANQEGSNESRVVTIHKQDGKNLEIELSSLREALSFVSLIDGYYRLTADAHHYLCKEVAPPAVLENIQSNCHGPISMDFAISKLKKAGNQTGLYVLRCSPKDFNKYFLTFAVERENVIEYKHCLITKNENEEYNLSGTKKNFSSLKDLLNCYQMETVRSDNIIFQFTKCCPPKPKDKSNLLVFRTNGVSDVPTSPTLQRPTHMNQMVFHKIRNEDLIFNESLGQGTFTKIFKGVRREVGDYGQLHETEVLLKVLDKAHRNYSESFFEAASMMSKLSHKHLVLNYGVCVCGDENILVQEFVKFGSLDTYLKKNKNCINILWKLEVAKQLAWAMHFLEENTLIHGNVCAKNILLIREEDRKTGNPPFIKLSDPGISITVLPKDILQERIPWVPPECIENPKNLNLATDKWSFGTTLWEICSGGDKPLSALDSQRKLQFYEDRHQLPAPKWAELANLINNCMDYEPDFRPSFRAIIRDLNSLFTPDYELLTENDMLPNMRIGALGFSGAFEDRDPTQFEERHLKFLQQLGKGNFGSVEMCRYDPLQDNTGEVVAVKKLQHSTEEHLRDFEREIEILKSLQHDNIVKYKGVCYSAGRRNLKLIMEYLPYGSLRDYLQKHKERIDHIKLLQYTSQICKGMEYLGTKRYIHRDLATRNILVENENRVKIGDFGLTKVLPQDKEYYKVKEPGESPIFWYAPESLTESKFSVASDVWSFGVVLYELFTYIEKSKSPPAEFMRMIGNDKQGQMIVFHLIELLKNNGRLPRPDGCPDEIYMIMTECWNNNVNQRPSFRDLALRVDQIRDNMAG
Chain of STK11 CAB39 STRADA (human) (Q15831 whole entry, looked up): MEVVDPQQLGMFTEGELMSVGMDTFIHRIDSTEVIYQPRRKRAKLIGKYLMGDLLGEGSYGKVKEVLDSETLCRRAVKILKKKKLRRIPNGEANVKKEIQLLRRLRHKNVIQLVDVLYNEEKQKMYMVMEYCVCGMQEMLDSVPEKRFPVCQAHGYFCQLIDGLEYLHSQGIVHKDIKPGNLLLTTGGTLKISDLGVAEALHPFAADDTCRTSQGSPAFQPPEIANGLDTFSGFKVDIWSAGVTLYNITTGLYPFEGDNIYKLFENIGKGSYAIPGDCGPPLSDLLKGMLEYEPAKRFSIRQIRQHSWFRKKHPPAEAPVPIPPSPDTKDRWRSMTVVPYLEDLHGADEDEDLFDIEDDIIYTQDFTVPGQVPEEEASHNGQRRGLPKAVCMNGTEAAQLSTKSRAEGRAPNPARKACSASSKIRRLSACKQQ
Chain of STK11 CAB39 STRADA (human) (Q7RTN6 whole entry, looked up): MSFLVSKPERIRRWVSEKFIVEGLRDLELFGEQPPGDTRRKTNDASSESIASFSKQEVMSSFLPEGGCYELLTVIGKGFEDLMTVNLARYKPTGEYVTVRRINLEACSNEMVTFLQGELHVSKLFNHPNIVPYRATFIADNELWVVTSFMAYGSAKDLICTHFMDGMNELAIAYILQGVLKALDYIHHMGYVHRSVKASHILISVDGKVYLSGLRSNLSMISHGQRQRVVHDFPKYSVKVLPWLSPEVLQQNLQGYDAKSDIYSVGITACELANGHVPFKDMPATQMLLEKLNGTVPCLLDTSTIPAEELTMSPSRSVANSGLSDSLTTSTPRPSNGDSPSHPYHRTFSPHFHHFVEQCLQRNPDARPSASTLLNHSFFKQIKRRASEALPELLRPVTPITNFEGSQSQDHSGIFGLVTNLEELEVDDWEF
Chain of STK11 CAB39 STRADA (human) (Q9Y376 whole entry, looked up): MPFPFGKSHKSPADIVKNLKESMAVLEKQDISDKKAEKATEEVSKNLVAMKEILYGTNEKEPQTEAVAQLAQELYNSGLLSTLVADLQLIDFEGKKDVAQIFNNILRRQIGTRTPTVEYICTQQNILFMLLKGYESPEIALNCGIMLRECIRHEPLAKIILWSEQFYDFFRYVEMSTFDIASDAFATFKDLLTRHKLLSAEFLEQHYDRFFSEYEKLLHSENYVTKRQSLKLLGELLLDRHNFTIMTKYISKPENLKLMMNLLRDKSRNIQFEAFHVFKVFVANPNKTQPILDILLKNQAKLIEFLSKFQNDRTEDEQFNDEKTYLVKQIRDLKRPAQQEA
Chain of MAPK14 (human) (Q16539 whole entry, looked up): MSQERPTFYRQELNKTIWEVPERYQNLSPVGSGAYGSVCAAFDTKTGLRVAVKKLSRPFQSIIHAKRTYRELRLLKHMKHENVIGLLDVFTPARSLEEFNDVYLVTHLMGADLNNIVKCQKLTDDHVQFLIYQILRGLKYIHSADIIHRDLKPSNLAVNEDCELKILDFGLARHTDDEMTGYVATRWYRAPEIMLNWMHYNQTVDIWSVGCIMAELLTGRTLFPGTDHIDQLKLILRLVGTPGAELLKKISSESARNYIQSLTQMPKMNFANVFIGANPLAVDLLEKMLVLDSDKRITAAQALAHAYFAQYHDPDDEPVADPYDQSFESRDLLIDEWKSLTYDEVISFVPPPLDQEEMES
Chain of NEK2 (human) (P51955 whole entry, looked up): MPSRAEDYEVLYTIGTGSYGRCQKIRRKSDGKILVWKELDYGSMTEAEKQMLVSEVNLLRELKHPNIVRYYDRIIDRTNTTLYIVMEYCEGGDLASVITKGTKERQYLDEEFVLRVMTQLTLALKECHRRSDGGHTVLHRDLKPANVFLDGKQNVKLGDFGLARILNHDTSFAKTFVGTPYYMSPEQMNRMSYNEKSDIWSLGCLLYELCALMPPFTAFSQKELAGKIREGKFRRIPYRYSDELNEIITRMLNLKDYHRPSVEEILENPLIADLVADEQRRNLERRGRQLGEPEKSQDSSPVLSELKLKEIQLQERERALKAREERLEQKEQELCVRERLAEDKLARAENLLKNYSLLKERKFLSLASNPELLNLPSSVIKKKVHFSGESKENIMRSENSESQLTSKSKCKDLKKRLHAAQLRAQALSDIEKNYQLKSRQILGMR
Chain of CSNK1D (human) (P48730 whole entry, looked up): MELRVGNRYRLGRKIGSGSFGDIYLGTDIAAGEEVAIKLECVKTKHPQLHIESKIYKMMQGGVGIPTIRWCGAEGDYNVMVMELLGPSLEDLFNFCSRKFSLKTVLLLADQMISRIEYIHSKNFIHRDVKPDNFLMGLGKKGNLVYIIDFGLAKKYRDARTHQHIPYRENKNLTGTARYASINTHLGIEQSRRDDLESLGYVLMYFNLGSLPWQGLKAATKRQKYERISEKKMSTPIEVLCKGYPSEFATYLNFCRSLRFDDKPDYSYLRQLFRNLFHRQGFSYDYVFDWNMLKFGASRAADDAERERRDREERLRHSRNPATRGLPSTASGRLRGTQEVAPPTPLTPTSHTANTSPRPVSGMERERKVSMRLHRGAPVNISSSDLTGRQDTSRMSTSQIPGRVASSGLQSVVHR
Chain of PAK4 (human) (O96013 whole entry, looked up): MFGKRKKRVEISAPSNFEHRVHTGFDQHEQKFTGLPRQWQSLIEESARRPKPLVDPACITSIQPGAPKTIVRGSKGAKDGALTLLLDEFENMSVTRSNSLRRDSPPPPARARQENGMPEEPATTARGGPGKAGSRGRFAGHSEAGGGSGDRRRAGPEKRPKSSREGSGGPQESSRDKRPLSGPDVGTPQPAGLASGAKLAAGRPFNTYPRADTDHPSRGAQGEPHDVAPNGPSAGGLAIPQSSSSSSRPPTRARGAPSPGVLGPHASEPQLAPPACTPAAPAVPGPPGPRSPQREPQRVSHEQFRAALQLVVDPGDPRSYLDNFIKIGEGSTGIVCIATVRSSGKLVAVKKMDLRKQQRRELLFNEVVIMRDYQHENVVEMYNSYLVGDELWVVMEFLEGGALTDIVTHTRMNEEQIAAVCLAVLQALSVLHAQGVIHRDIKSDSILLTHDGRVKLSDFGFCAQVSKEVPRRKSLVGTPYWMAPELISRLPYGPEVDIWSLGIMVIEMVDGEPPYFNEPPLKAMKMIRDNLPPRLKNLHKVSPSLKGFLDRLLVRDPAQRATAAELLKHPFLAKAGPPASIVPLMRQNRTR

residual activity ([1]; compound 0.1 µM): 92% | residual activity ([1]; compound 1.0 µM): 103% | residual activity ([1]; compound 10.0 µM): 105% | residual activity ([2]; compound 0.1 µM): 130% | residual activity ([2]; compound 1.0 µM): 116% | residual activity ([2]; compound 10.0 µM): 61% | residual activity ([3]; compound 0.1 µM): 92% | residual activity ([3]; compound 1.0 µM): 94% | residual activity ([3]; compound 10.0 µM): 100% | residual activity ([4]; compound 1.0 µM): 101% | residual activity ([4]; compound 10.0 µM): 79% | residual activity ([5]; compound 0.1 µM): 98% | residual activity ([5]; compound 1.0 µM): 98% | residual activity ([5]; compound 10.0 µM): 103% | residual activity ([6]; compound 0.1 µM): 98% | residual activity ([6]; compound 1.0 µM): 100% | residual activity ([6]; compound 10.0 µM): 108% | residual activity ([7]; compound 0.1 µM): 103% | residual activity ([7]; compound 1.0 µM): 101% | residual activity ([7]; compound 10.0 µM): 78% | residual activity ([8]; compound 0.1 µM): 103% | residual activity ([8]; compound 1.0 µM): 103% | residual activity ([8]; compound 10.0 µM): 72% | residual activity ([9]; compound 0.1 µM): 104% | residual activity ([9]; compound 1.0 µM): 111% | residual activity ([9]; compound 10.0 µM): 114% | residual activity ([10]; compound 0.1 µM): 96% | residual activity ([10]; compound 1.0 µM): 97% | residual activity ([10]; compound 10.0 µM): 61% | residual activity ([11]; compound 0.1 µM): 99% | residual activity ([11]; compound 1.0 µM): 97% | residual activity ([11]; compound 10.0 µM): 69% | residual activity ([12]; compound 1.0 µM): 107% | residual activity ([12]; compound 10.0 µM): 93% | residual activity ([13]; compound 0.1 µM): 109% | residual activity ([13]; compound 1.0 µM): 103% | residual activity ([13]; compound 10.0 µM): 94% | residual activity [14]: 56% | residual activity ([15]; compound 0.1 µM): 109% | residual activity ([15]; compound 1.0 µM): 111% | residual activity ([15]; compound 10.0 µM): 118% | residual activity ([16]; compound 0.1 µM): 100% | residual activity ([16]; compound 10.0 µM): 111% | residual activity ([17]; compound 0.1 µM): 99% | residual activity ([17]; compound 1.0 µM): 114% | residual activity ([17]; compound 10.0 µM): 118% | residual activity ([18]; compound 0.1 µM): 99% | residual activity ([18]; compound 1.0 µM): 100% | residual activity ([18]; compound 10.0 µM): 109% | residual activity ([19]; compound 0.1 µM): 112% | residual activity ([19]; compound 1.0 µM): 121% | residual activity ([19]; compound 10.0 µM): 110% | residual activity ([20]; compound 0.1 µM): 112% | residual activity ([20]; compound 1.0 µM): 114% | residual activity ([20]; compound 10.0 µM): 119% | residual activity ([21]; compound 0.1 µM): 93% | residual activity ([21]; compound 1.0 µM): 94% | residual activity ([21]; compound 10.0 µM): 82% | residual activity ([22]; compound 0.1 µM): 92% | residual activity ([22]; compound 1.0 µM): 84% | residual activity ([22]; compound 10.0 µM): 30% | residual activity ([23]; compound 0.1 µM): 99% | residual activity ([23]; compound 10.0 µM): 126% | residual activity ([24]; compound 0.1 µM): 101% | residual activity ([24]; compound 1.0 µM): 92% | residual activity ([24]; compound 10.0 µM): 95% | residual activity ([25]; compound 0.1 µM): 123% | residual activity ([25]; compound 1.0 µM): 126% | residual activity ([25]; compound 10.0 µM): 129% | residual activity ([26]; compound 1.0 µM): 102% | residual activity ([26]; compound 10.0 µM): 111% | residual activity ([27]; compound 0.1 µM): 94% | residual activity ([27]; compound 1.0 µM): 104% | residual activity ([27]; compound 10.0 µM): 104% | residual activity ([28]; compound 0.1 µM): 106% | residual activity ([28]; compound 1.0 µM): 115% | residual activity ([28]; compound 10.0 µM): 111% | residual activity ([29]; compound 0.1 µM): 103% | residual activity ([29]; compound 1.0 µM): 102% | residual activity ([29]; compound 10.0 µM): 110% | residual activity ([30]; compound 0.1 µM): 118% | residual activity ([30]; compound 1.0 µM): 99% | residual activity ([30]; compound 10.0 µM): 105% | residual activity ([31]; compound 0.1 µM): 110% | residual activity ([31]; compound 1.0 µM): 110% | residual activity ([31]; compound 10.0 µM): 97% | residual activity ([32]; compound 0.1 µM): 111% | residual activity ([32]; compound 1.0 µM): 112% | residual activity ([32]; compound 10.0 µM): 94% | residual activity ([33]; compound 0.1 µM): 116% | residual activity ([33]; compound 1.0 µM): 102% | residual activity ([33]; compound 10.0 µM): 105% | residual activity ([34]; compound 0.1 µM): 109% | residual activity ([34]; compound 1.0 µM): 101% | residual activity ([34]; compound 10.0 µM): 105% | residual activity ([35]; compound 0.1 µM): 92% | residual activity ([35]; compound 1.0 µM): 110% | residual activity ([35]; compound 10.0 µM): 97%
Compound: CC1=C(CO)C(=O)O[C@@H]([C@@H](C)[C@H]2CC[C@H]3[C@@H]4C[C@H]5O[C@]56[C@@H](O)C=CC(=O)[C@]6(C)C4CC[C@]23C)C1 (stereo partly drawn)
